Test results reported in patent publication US9421194B2, “Lung targeting dual drug delivery system” (priority 2010, dated 2016).

What was measured:
[1] = Systemic (plasma) concentration of CPT after single bolus IV injection; format: in vivo, rats; conditions: free CPT IV, 2 mg/kg
Protocol: FIG. 9 illustrates systemic (plasma) concentration of camptothecin (CPT) as a function of time after a single bolus IV injection of CPT-Nva-MPs (CPT dose=0.2 mg/kg) (squares) and free CPT (2 mg/kg) (triangles). Values are reported as mean±SD. The lower limit of quantitation was 0.1 ng/mL.
PEGylated 6 μm polystyrene MPs with three copies of the norvaline (Nva) α-amino acid prodrug of CPT were prepared. […] Referring to FIG. 10, anti-cancer efficacy was evaluated in an orthotopic rat lung cancer model and compared to a bolus injection of CPT. One week after A549 cell inoculation, nude rats were injected IV with CPT-Nva-MPs (50 and 100 mg/kg equivalent to CPT at 0.11 mg/kg and 0.22 mg/kg), free CPT (2 mg/kg) or vehicle control (saline containing 0.1% Tween 80). The treatment was conducted every 3 days for 27 days. The day after the last treatment, all animals were euthanized, and organs (lung, heart, […], spleen and […]) were dissected and weighed. The organs were fixed in 10% neutral buffered formalin for H&E staining. […] In addition, 40% of the animals receiving CPT-Nva-MPs (0.22 mg/kg) were free of cancer. […] See references 74 and 86, which are incorporated herein by reference as if fully set forth.

[2] = tested on: A549 cell orthotopic lung cancer; test: Anti-cancer efficacy in orthotopic rat lung cancer model; format: in vivo, nude rats; conditions: 2 mg/kg IV every 3 days for 27 days; p<0.05
Protocol: PEGylated 6 μm polystyrene MPs with three copies of the norvaline (Nva) α-amino acid prodrug of CPT were prepared. […] The treatment was conducted every 3 days for 27 days. The day after the last treatment, all animals were euthanized, and organs (lung, heart, […], spleen and […]) were dissected and weighed. The organs were fixed in 10% neutral buffered formalin for H&E staining. […] See references 74 and 86, which are incorporated herein by reference as if fully set forth.

With CC[C@@]1(O)C(=O)OCc2c1cc1n(c2=O)Cc2cc3ccccc3nc2-1 [free CPT, camptothecin] as the compound, how does the “systemic CPT exposure (in words)” value [1] read?
The value was “high but short-lived systemic exposures”.

And the “area of lung cancer versus untreated animals” value [2]?
Its value is “smaller areas of lung cancer”.
